{"source": "paper PMC12040169", "about": "(PLOS Biology, 2025)", "data": [{"assay": "in vitro", "details": "human, hela cells, % viability", "units": {"viability at 28.5 h, 10 µM": "%"}, "values": [{"smiles": "COc1cc(CN2CCN(c3cc(C)ccc3C)CC2)ccc1OCc1ccccc1", "note": "[CBK261898]", "viability at 28.5 h, 10 µM": 86.6}, {"smiles": "COc1ccc(CN2CCN(c3ccccc3F)CC2)cc1OCc1ccccc1", "note": "[CBK261900]", "viability at 28.5 h, 10 µM": 115}, {"smiles": "CC(CCN1CCN(Cc2ccccc2)CC1)c1ccccc1", "note": "(stereo not shown) [CBK261902]", "viability at 28.5 h, 10 µM": 89.1}, {"smiles": "CN(C)c1ccc(/C=C/CN2CCN(c3ccc([N+](=O)[O-])cc3)CC2)cc1", "note": "[CBK261904]", "viability at 28.5 h, 10 µM": 96.9}, {"smiles": "COc1cccc(CN(C)CCN(C)C)c1O", "note": "[CBK261905]", "viability at 28.5 h, 10 µM": 102}, {"smiles": "OCCN(CCO)CC1CC=CCC1", "note": "(stereo not shown) [CBK261907]", "viability at 28.5 h, 10 µM": 108}, {"smiles": "OCCN(Cc1ccccc1)Cc1ccc(Cl)c(Cl)c1", "note": "[CBK261908]", "viability at 28.5 h, 10 µM": 117}, {"smiles": "COc1ccc(CCN(C)Cc2ccccn2)cc1OC", "note": "[CBK261912]", "viability at 28.5 h, 10 µM": 88.8}, {"smiles": "COc1ccc2ccccc2c1CN1CCN(Cc2ccccc2)CC1", "note": "[CBK261913]", "viability at 28.5 h, 10 µM": 98.5}, {"smiles": "CCN(CCC(C)c1ccccc1)CCN(C)C", "note": "(stereo not shown) [CBK261914]", "viability at 28.5 h, 10 µM": 94.6}, {"smiles": "Fc1ccc(N2CCN(Cc3cccc(OCc4ccccc4)c3)CC2)cc1", "note": "[CBK261916]", "viability at 28.5 h, 10 µM": 94.6}, {"smiles": "CCN(CC)CCN(C)C1CCN(C)CC1", "note": "[CBK261917]", "viability at 28.5 h, 10 µM": 94.7}, {"smiles": "CCCN1CCC(N2CCN(CCO)CC2)CC1", "note": "[CBK261920]", "viability at 28.5 h, 10 µM": 79.9}, {"smiles": "CN(C)c1ccc(CN(CCO)CCO)cc1", "note": "[CBK261921]", "viability at 28.5 h, 10 µM": 88.3}, {"smiles": "C(=C\\c1ccccc1)/CN1CCN(C2CCN(CCc3ccccc3)CC2)CC1", "note": "[CBK261923]", "viability at 28.5 h, 10 µM": 108}, {"smiles": "CCn1c2ccccc2c2cc(CN(CCN(C)C)Cc3ccccc3)ccc21", "note": "[CBK261924]", "viability at 28.5 h, 10 µM": 102}, {"smiles": "CN1CCC(N(C)C2CCN(Cc3ccccc3)CC2)CC1", "note": "[CBK261925]", "viability at 28.5 h, 10 µM": 85.8}, {"smiles": "c1ccc(CCN2CCC(N3CCOCC3)CC2)cc1", "note": "[CBK261928]", "viability at 28.5 h, 10 µM": 85.2}, {"smiles": "CN(C)CCN(C)C1CCN(Cc2ccccc2)CC1", "note": "[CBK261930]", "viability at 28.5 h, 10 µM": 102}, {"smiles": "S=C(Nc1ccccc1)NC1C2CN3CCN(C2)CC1(c1ccccc1)C3", "note": "(stereo not shown) [CBK261936]", "viability at 28.5 h, 10 µM": 88.6}, {"smiles": "CC(=O)Nc1ccccc1/C=C/c1ccc2c(C)cc(C)c(O)c2n1", "note": "[CBK261937]", "viability at 28.5 h, 10 µM": 106}, {"smiles": "CC(C)(C)c1cc(CCCOC(=O)CNc2ccccc2)cc(C(C)(C)C)c1O", "note": "[CBK261939]", "viability at 28.5 h, 10 µM": 101}, {"smiles": "O=C(O)CCNS(=O)(=O)c1ccc(Br)cc1", "note": "[CBK261941]", "viability at 28.5 h, 10 µM": 90.6}, {"smiles": "COc1ccc(C(CC(=O)O)C(=O)O)cc1OC", "note": "(stereo not shown) [CBK261943]", "viability at 28.5 h, 10 µM": 90.4}, {"smiles": "O=C(CNC(=O)c1cccc(Cl)c1)N/N=C/C=C/c1ccccc1", "note": "[CBK261947]", "viability at 28.5 h, 10 µM": 90.4}, {"smiles": "O=[N+]([O-])c1ccc(NCCNS(=O)(=O)c2ccccc2)cc1", "note": "[CBK261948]", "viability at 28.5 h, 10 µM": 96.1}, {"smiles": "CCN(CC)CCOc1c(C)cccc1Cl", "note": "[CBK261950]", "viability at 28.5 h, 10 µM": 95.9}, {"smiles": "CC1(C)CC(NC(=O)C(=O)NC2CC(C)(C)NC(C)(C)C2)CC(C)(C)N1", "note": "[CBK261951]", "viability at 28.5 h, 10 µM": 98.9}, {"smiles": "O=C(CNC(=O)c1ccccc1F)N/N=C/c1cccs1", "note": "[CBK261953]", "viability at 28.5 h, 10 µM": 97.8}, {"smiles": "COc1c(O)ccc(/C=N/NC(=O)COc2c(Br)cc(Br)cc2Br)c1[N+](=O)[O-]", "note": "[CBK261957]", "viability at 28.5 h, 10 µM": 95.9}, {"smiles": "O=C(N/N=C\\c1ccc([N+](=O)[O-])o1)c1nc(-c2ccccc2)cc(-c2ccccc2)n1", "note": "[CBK261958]", "viability at 28.5 h, 10 µM": 95.5}, {"smiles": "CC(C)(C)c1cc(CCC(=O)N/N=C/c2ccco2)cc(C(C)(C)C)c1O", "note": "[CBK261960]", "viability at 28.5 h, 10 µM": 110}, {"smiles": "O=C(N/N=C\\c1cccc(O)c1)C(=O)N/N=C/c1cccc(O)c1", "note": "[CBK261962]", "viability at 28.5 h, 10 µM": 87.6}, {"smiles": "CC(C)(C)c1cc(CCC(=O)N2CCN(C(=O)CCc3cc(C(C)(C)C)c(O)c(C(C)(C)C)c3)CC2)cc(C(C)(C)C)c1O", "note": "[CBK261963]", "viability at 28.5 h, 10 µM": 91.1}, {"smiles": "COc1ccccc1/C=N/NC(=O)COc1c(Br)cc(Br)cc1Br", "note": "[CBK261966]", "viability at 28.5 h, 10 µM": 95.2}, {"smiles": "NNC(=O)CNS(=O)(=O)c1ccccc1", "note": "[CBK261967]", "viability at 28.5 h, 10 µM": 97.9}, {"smiles": "O=C(CCC(=O)Nc1ccccc1)N/N=C/c1ccco1", "note": "[CBK261968]", "viability at 28.5 h, 10 µM": 108}, {"smiles": "O=C(CNC(=O)c1ccccc1)N/N=C/c1ccc(C(=O)O)cc1", "note": "[CBK261976]", "viability at 28.5 h, 10 µM": 102}, {"smiles": "Nc1ccc(Oc2ccc3nc4c5cc(I)ccc5c5ccc(I)cc5c4nc3c2)cc1", "note": "[CBK261978]", "viability at 28.5 h, 10 µM": 87.6}, {"smiles": "O=C1c2ccccc2-c2onc3c(NCc4ccccc4)cc(Nc4ccccc4)c1c23", "note": "[CBK261979]", "viability at 28.5 h, 10 µM": 84}, {"smiles": "C/C(=C\\C(=O)NC1CC(C)(C)NC(C)(C)C1)NC1CC(C)(C)NC(C)(C)C1", "note": "[CBK261982]", "viability at 28.5 h, 10 µM": 113}, {"smiles": "Cc1ccc(S(=O)(=O)N=C2NCN(CC(=O)O)CN2)cc1", "note": "[CBK261983N]", "viability at 28.5 h, 10 µM": 93.6}, {"smiles": "CC1(C)CC(NC(=O)CCc2cc(C(C)(C)C)c(O)c(C(C)(C)C)c2)CC(C)(C)N1", "note": "[CBK261986]", "viability at 28.5 h, 10 µM": 88.9}, {"smiles": "Nc1nonc1-n1nnc(C(=O)N/N=C2\\CCc3ccccc32)c1-c1ccccc1", "note": "[CBK261988]", "viability at 28.5 h, 10 µM": 95.1}, {"smiles": "COc1ccccc1C(=O)NCC(=O)N/N=C/c1ccc(N(C)C)cc1", "note": "[CBK261989]", "viability at 28.5 h, 10 µM": 104}, {"smiles": "CC(C)(C)c1cc(CN(Cc2cc(C(C)(C)C)c(O)c(C(C)(C)C)c2)/N=C\\c2ccccc2O)cc(C(C)(C)C)c1O", "note": "[CBK261990]", "viability at 28.5 h, 10 µM": 101}, {"smiles": "Cc1cc(I)ccc1NC(=O)CCC(=O)N/N=C/c1ccco1", "note": "[CBK261991]", "viability at 28.5 h, 10 µM": 99.4}, {"smiles": "CC(C)(C)c1cc(CN(Cc2cc(C(C)(C)C)c(O)c(C(C)(C)C)c2)C2CCCCC2)cc(C(C)(C)C)c1O", "note": "[CBK261996]", "viability at 28.5 h, 10 µM": 106}, {"smiles": "c1ccc2c(OCCOCCN3CCCCC3)cccc2c1", "note": "[CBK262000]", "viability at 28.5 h, 10 µM": 88}, {"smiles": "Oc1ccccc1/C=N/Nc1nnc(-c2ccccc2)c(-c2ccccc2)n1", "note": "[CBK262003]", "viability at 28.5 h, 10 µM": 93}, {"smiles": "CC1(C)CC(/N=C(\\c2ccccc2)c2ccc(O)cc2O)CC(C)(C)N1", "note": "[CBK262004]", "viability at 28.5 h, 10 µM": 101}, {"smiles": "O=[N+]([O-])c1ccc(NCCCNS(=O)(=O)c2ccc3ccccc3c2)c(Cl)c1", "note": "[CBK262006]", "viability at 28.5 h, 10 µM": 79.3}, {"smiles": "O=C(CCC(=O)Nc1ccc(I)cc1)N/N=C/c1ccc(Br)cc1", "note": "[CBK262010]", "viability at 28.5 h, 10 µM": 88.9}, {"smiles": "C[N+](C)(C)CCC(=O)CCC(=O)O", "note": "[CBK262012I]", "viability at 28.5 h, 10 µM": 102}, {"smiles": "COc1cc(/C=N/NC(=O)CNC(=O)c2ccncc2)ccc1O", "note": "[CBK262013]", "viability at 28.5 h, 10 µM": 102}, {"smiles": "Cc1cc(O)n(-c2cc(-c3ccccc3)nc(-c3ccccc3)n2)n1", "note": "[CBK262014]", "viability at 28.5 h, 10 µM": 95.5}, {"smiles": "COc1cc(/C=N/CC/N=C/c2ccc(O)c(OC)c2)ccc1O", "note": "[CBK262015]", "viability at 28.5 h, 10 µM": 106}, {"smiles": "NNC(=O)Nc1ccc(Cc2ccc(NC(=O)NN)cc2)cc1", "note": "[CBK262017]", "viability at 28.5 h, 10 µM": 88.5}, {"smiles": "C/C(=N\\NC(=O)CNC(=O)c1ccc(Br)cc1)c1ccccc1", "note": "[CBK262020]", "viability at 28.5 h, 10 µM": 103}, {"smiles": "Cc1cccc(NC(=O)CCC(=O)N/N=C/c2cccnc2)c1", "note": "[CBK262023]", "viability at 28.5 h, 10 µM": 103}, {"smiles": "O=C(CN1C(=O)c2ccccc2C1=O)Nc1cc(C(=O)O)cc(C(=O)O)c1", "note": "[CBK262024]", "viability at 28.5 h, 10 µM": 102}, {"smiles": "C(=N\\Nc1nnc(-c2ccccc2)c(-c2ccccc2)n1)/c1cccnc1", "note": "[CBK262025]", "viability at 28.5 h, 10 µM": 91.8}, {"smiles": "O=[N+]([O-])c1ccc(-c2ccc(/C=N/Nc3nnc4c(n3)[nH]c3ccccc34)o2)cc1", "note": "[CBK262029]", "viability at 28.5 h, 10 µM": 90.4}, {"smiles": "O=[N+]([O-])c1ccccc1NC1OCC(O)C(O)C1O", "note": "(stereo not shown) [CBK262032]", "viability at 28.5 h, 10 µM": 90.3}]}]}
